The text below walks through data of patent US8158621B2, “Methods of treating or preventing autoimmune diseases with 2,4-pyrimidinediamine compounds” (Rigel Pharmaceuticals, Inc., priority 2002, dated 2012).

Bounds are passed on as bounds.

In the first assay the test system is cultured human mast cells (CHMC). The assay can be described thus: CHMC low cell density IgE activation: tryptase assay. It counts as cell-based. As to conditions: Homo sapiens, Mast cell, Low Density; read-out: CHMC anti-IgE Tryptase. How it is done: Pellet CHMC cells (980 rpm, 10 min) and resuspend in pre-warmed MT. Add 65 ul of cells to each 96-well plate. Depending on the degranulation activity for each particular CHMC donor, load 1000-1500 cells/well. Mix four times followed by a 1 hr incubation at 37° C. […] Stimulate cells by adding 25 ul of 6× anti-IgE solution to the appropriate plates. Add 25 ul MT to un-stimulated control wells. Mix twice following addition of the anti-IgE. Incubate at 37° C. for 30 minutes. […] Spin plates at 1000 rpm for 10 min to pellet cells. Transfer 25 ul of supernatant to a 96-well black bottom plate and add 100 ul of freshly diluted tryptase substrate solution to each well. Incubate plates at room temperature for 30 min.
Consider `Fc1cnc(Cl)nc1Nc1cccc(OC(F)(F)F)c1` [Compound R920402], for which the IC50 was greater than 10000 nM. Turning to `Cc1ccnc(Nc2nc(Cl)ncc2F)c1` [Compound R920401], the IC50 was greater than 10000 nM. Same read-out and setting: then `CN(C=C1C=CC=C(Nc2nc(Cl)ncc2F)C1)C(=O)OC(C)(C)C` [Compound R940315], with greater than 10000 nM.

The assay is the same for the next values; noted with them: low cell density; read-out: CHMC anti-IgE Tryptase.
Regarding `COc1cc(Nc2ncc(F)c(Nc3ccc4cnn(C)c4c3)n2)c(OC)cc1Cl` [Compound R935421], the IC50 came to 2890 nM. Same read-out and setting: to `NCc1ccc(Nc2ncc(F)c(Nc3ccc(Cl)c(Cl)c3)n2)cc1` [Compound R950459] belongs 632 nM. Still for that read-out and setting: to `COc1cc(Nc2ncc(F)c(Nc3ccc(N4CCOCC4)c(Cl)c3)n2)cc(OC)c1` [Compound R926986] belongs 345 nM; to `CC(=O)N1CCN(c2ccc(Nc3nc(NC4CCC4)ncc3F)cc2)CC1` [Compound R945382], greater than 10000 nM.

On to `O=C1COc2ccc(Nc3nc(Nc4ccc(OCc5ccccc5)cc4)ncc3F)nc2N1` [Compound R945410], for which the IC50 was greater than 10000 nM. Still for that read-out and setting: to `CNC(=O)COc1cccc(Nc2ncc(F)c(Nc3ccc(OC(C)C)c(Cl)c3)n2)c1` [Compound R926973] belongs 284 nM; to `Fc1ccc(Nc2nc(Nc3ccc4[nH]ncc4c3)ncc2F)cc1Cl` [Compound R935428], 1270 nM; to `CC(=O)N1CCN(c2ccc(Nc3nc(NC4CC4)ncc3F)cc2)CC1` [Compound R945381], greater than 10000 nM.

Turning to `COc1ccc(Nc2nc(Nc3cc(C)c(C)c(C)c3)ncc2F)cc1Cl` [Compound R926993], the IC50 was 689 nM. Still for that read-out and setting: to `COc1cc(Nc2nc(Nc3ccc4[nH]ncc4c3)ncc2F)ccc1F` [Compound R935417] belongs 417 nM.

With `Cc1cc(Nc2ncc(F)c(Nc3ccc4c(c3)NC(=O)C(C)(C)O4)n2)cc(C)c1C` [Compound R926994], the IC50 was 61 nM.

For `COc1c(C)cc(Nc2ncc(F)c(Nc3ccc4c(n3)NC(=O)C(C)(C)O4)n2)cc1C` [Compound R940395], the IC50 is greater than 10000 nM. As for `COC(=O)N1CCN(c2ccc(Nc3nc(NC4CC4)ncc3F)cc2)CC1` [Compound R945373], the IC50 was greater than 10000 nM. Same read-out and setting: to `CNC(=O)COc1cccc(Nc2ncc(F)c(Nc3ccc(OC)c(Cl)c3)n2)c1` [Compound R926989] belongs 199 nM.

Regarding `COc1cc(Nc2ncc(F)c(Nc3ccc4c(c3)NC(=O)C(C)(C)O4)n2)cc(OC)c1` [Compound R927072], the IC50 turned out to be 64 nM. Still for that read-out and setting: to `Cn1ncc2ccc(Nc3ncc(F)c(Nc4ccc5c(c4)NC(C)(C)CO5)n3)cc21` [Compound R908592] belongs 50 nM; to `Cc1cc(Nc2ncc(F)c(Nc3ccc4c(c3)OCCO4)n2)cc(Cl)c1O` [Compound R940393], 5260 nM; to `Cc1cc(Nc2ncc(F)c(Nc3ccc4cnn(C)c4c3)n2)cc(Cl)c1O` [Compound R935395], 276 nM. On to `Cn1ncc2cc(Nc3ncc(F)c(Nc4ccc(Cl)c(F)c4)n3)ccc21` [Compound R935411], for which the IC50 is greater than 10000 nM.

On to `Fc1cc(Nc2nc(Nc3ccc4[nH]ncc4c3)ncc2F)ccc1Cl` [Compound R935415], for which the IC50 is 237 nM. Still for that read-out and setting: then `COc1cc(Nc2nc(N[C@@H]3CCCC[C@H]3N)ncc2F)cc(OC)c1` [Compound R950439], with greater than 10000 nM; and `COc1cc(Nc2ncc(F)c(Nc3ccc(N4CCOCC4)c(Cl)c3)n2)cc(C(F)(F)F)c1` [Compound R926987], with 10000 nM; and `CCN(CC)CCNC(=O)c1ccc(Nc2ncc(F)c(Nc3ccc4c(c3)NC(=O)[C@H](C)O4)n2)cc1` [Compound R950446], with 148 nM.

Turning to `COc1c(C)cc(Nc2ncc(F)c(Nc3ccc4c(c3)OCCO4)n2)cc1Cl` [Compound R940397], the IC50 was determined as 3700 nM.

For `C[C@@H]1Oc2ccc(Nc3nc(N[C@@H]4CCCC[C@H]4N)ncc3F)cc2NC1=O` [Compound R950441], the IC50 is greater than 10000 nM. The same measure, in the same setting: to `CCNC1CCC(Oc2ccc(Nc3nc(Nc4cccc(OCC(=O)NC)c4)ncc3F)cc2Cl)CC1` (mixture of isomers) [Compound R945411] belongs 2860 nM. Still for that read-out and setting: to `Fc1ccc(Nc2nc(Nc3ccc4cn[nH]c4c3)ncc2F)cc1F` [Compound R935400] belongs 502 nM; to `COc1cc(Nc2ncc(F)c(Nc3ccc4cnn(C)c4c3)n2)cc(OC)c1` [Compound R935420], 561 nM. Same read-out and setting: to `COc1ccc(Nc2nc(Nc3cc(Cl)cc(Cl)c3)ncc2F)cc1Cl` [Compound R926990] belongs 11300 nM; to `CNC(=O)COc1cccc(Nc2ncc(F)c(Nc3ccc4c(c3)C(NC)CCO4)n2)c1` (racemic) [Compound R950412], 301 nM; to `OCCCn1ncc2cc(Nc3ncc(F)c(Nc4ccc(F)c(F)c4)n3)ccc21` [Compound R935386], 291 nM. As to `CC(=O)N(C)c1ccc(Nc2ncc(F)c(NC3CCC3)n2)cc1` [Compound R945383], the IC50 turned out to be 985 nM. For `Cn1ncc2cc(Nc3ncc(F)c(Nc4ccc(F)c(Cl)c4)n3)ccc21` [Compound R935426], the IC50 was greater than 10000 nM. On the same count and under the same terms, then `COc1cc(Nc2ncc(F)c(Nc3ccc4c(c3)NC(=O)C(C)(C)O4)n2)cc(OC)c1` [Compound R927071], with 67 nM; and `CC1(C)Oc2ccc(Nc3ncc(F)c(Nc4ccc(Cl)c(Cl)c4)n3)cc2NC1=O` [Compound R927059], with 291 nM; and `COc1c(Cl)cc(Nc2ncc(F)c(Nc3ccc(Cl)c(Cl)c3)n2)cc1Cl` [Compound R927058], with 12200 nM. Regarding `CCN(CC)CCNC(=O)c1ccc(Nc2ncc(F)c(Nc3ccc4c(c3)NC(=O)C(F)(F)O4)n2)cc1` [Compound R950449], the IC50 was 668 nM. On the same count and under the same terms, to `CC(C)(C)OC(=O)NCc1ccc(Nc2ncc(F)c(Nc3ccc4c(c3)NC(=O)C(F)(F)O4)n2)cc1` [Compound R950464] belongs 244 nM.

A further assay relates to Human Jurkat T-cells (clone N). The assay can be described thus: Jurkat T-cell activation (anti-TCR, CD69 upregulation). The class given is cell-based.
Conditions: not given
The method in brief: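 Jurkat cells in RPMI + 5% FBS preincubated with compound 1 h at 37 °C, then stimulated with anti-TCR C305 at 500 ng/ml for 20 h. CD69 surface expression stained with anti-CD69-APC and read by flow cytometry; IC50 versus solvent-only control.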
`COc1ccc(Nc2ncc([N+](=O)[O-])c(Nc3ccc(OC)c(OC)c3)n2)cc1OC` [Compound R940089] came in with an IC50 greater than 10000 nM.

`Nc1cccc(Nc2nc(Nc3cccc(Nc4ncc(F)c(Nc5cccc(N)c5)n4)c3)ncc2F)c1` [Compound R950137] came in with an IC50 of 5900 nM. Same read-out and setting: then `Cn1nnc(COc2ccc(Nc3ncc(F)c(Nc4ccc(OCc5nnn(C)n5)cc4)n3)cc2)n1` [Compound R945046], with 4080 nM; and `CNC(=O)Cn1ncc2cc(Nc3ncc(F)c(Nc4ccc5c(cnn5CC(=O)NC)c4)n3)ccc21` [Compound R935217], with greater than 10000 nM; and `CNC(=O)COc1cccc(Nc2ncc(F)c(Nc3ccc(OCCC(=O)OC)cc3)n2)c1` [Compound R950346], with 1950 nM.

Still in this assay, the particulars now being: Homo sapiens, Jurkat.
The compound `COc1ccc(Nc2ncc(F)c(Nc3ccc4c(c3)OCCO4)n2)cc1OC` [Compound R926212] gave an IC50 of 560 nM. The same measure, in the same setting: to `COc1ccc(Nc2nc(NCCN3CCN(Cc4ccccc4)CC3)ncc2F)cc1OC` [Compound R940262] belongs 6450 nM; to `CCCNC(=O)c1cccc(Nc2ncc(F)c(Nc3cccc(O)c3)n2)c1` [Compound R926937], greater than 10000 nM; to `COC(=O)C=C1C=CC=C(Nc2ncc(F)c(NC3=CC=CC(=CC(=O)OC)C3)n2)C1` [Compound R935114], greater than 10000 nM. Regarding `CCOc1ccc(Nc2ccnc(Nc3ccc(OCC)c(N)c3)n2)cc1N` [Compound R950142], the IC50 is 29100 nM.

With `CCOC(=O)Nc1ccc(Nc2ncc(F)c(Nc3ccc(NC(=O)OCC)c(O)c3)n2)cc1O` [Compound R926340], the IC50 is greater than 10000 nM.
